This note sets out measurements from patent US11919918B2, “P2X3 andor P2X2/3 receptor antagonist, pharmaceutical composition comprising same, and use thereof” (BEIJING TIDE PHARMACEUTICAL CO., LTD., priority 2017, dated 2024).

In experiment [1] the target is human P2X3 receptor (Homo sapiens (Human), UniProt P56373). Nature of the experiment: Inhibitory activity on human P2X3 receptor (calcium 6 dye FLIPR assay, agonist α,β-MeATP). Type of experiment: cell-based. Conditions: HEK293-P2X3 stably expressing cell line, FLIPR Tetra. As to the method: (§1) Biological Assay: Determination of the Inhibitory Activity of the Compounds on Human P2X3 and P2X2/3 Receptors
Chain of human P2X3 receptor (P56373 whole entry): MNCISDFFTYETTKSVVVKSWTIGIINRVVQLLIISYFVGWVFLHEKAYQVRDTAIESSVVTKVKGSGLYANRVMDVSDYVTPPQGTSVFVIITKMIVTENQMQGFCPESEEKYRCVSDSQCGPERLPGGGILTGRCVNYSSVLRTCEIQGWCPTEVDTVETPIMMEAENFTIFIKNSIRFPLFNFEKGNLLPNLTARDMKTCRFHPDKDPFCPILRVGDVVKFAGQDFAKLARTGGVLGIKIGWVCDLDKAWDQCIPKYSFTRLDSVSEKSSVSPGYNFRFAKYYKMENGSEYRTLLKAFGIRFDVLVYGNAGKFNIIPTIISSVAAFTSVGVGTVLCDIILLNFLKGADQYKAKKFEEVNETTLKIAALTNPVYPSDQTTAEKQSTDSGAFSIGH
(§2) Cells were seeded into a poly-D-lysine-coated 384-well cell culture plate (Corning) at a density of 11,000 cells/well/25 μL of cell inoculation medium, and were cultured in a cell incubator overnight. On the day of the test, the calcium 6 dye was diluted to a 2× concentration with a assay buffer, 25 μL of the 2× calcium 6 dye was added to the 384-well cell culture plate, which was incubated at 37° C. for 2 hours, and then placed at room temperature for further use. The test compound and the agonist, α,β-MeATP were diluted to a 7× concentration with the assay buffer, 10 μL of the 7× test compound was added to the 384-well cell culture plate, which was incubated at room temperature for 15 minutes, and 10 μL of the 7× α,β-MeATP was transferred into the 384-well cell culture plate. The data were measured and analyzed using FLIPR Tetra, and the half inhibitory concentration (IC50) of the test compound on P2X3 and P2X2/3 receptors was calculated with the GraphPad Prism four-parameter equation.
(§3) Cell lines: human embryonic kidney cells HEK293-P2X3 and HEK293-P2X2/3 stably expressing cell lines;
(§4) Complete cell culture medium: DMEM High Glucose (Life Technology), which contained 10% fetal bovine serum, 4 mM GlutaMAX, 1% penicillin-streptomycin, and 350 μg/mL G418;
(§5) Cell inoculation medium: DMEM High Glucose (Life Technology), which contained 2% fetal bovine serum, and 4 mM GlutaMAX;
(§6) Cell culture conditions: 37° C., 5% CO2;
(§7) Assay buffer: HBSS (containing calcium and magnesium ions), which contained 20 mM HEPES;
(§8) Detection equipment: FLIPR Tetra (Molecular Devices);

Experiment [2] concerns the target human P2X2/3 receptor (Homo sapiens (Human), UniProt P56373+Q9UBL9). Nature of the experiment: Inhibitory activity on human P2X2/3 receptor (calcium 6 dye FLIPR assay, agonist α,β-MeATP). Type of experiment: cell-based. Conditions: HEK293-P2X2/3 stably expressing cell line, FLIPR Tetra. As to the method:
as §1, §2, §3, §4, §5, §6, §7, §8

Chain of human P2X2/3 receptor (Q9UBL9 whole entry): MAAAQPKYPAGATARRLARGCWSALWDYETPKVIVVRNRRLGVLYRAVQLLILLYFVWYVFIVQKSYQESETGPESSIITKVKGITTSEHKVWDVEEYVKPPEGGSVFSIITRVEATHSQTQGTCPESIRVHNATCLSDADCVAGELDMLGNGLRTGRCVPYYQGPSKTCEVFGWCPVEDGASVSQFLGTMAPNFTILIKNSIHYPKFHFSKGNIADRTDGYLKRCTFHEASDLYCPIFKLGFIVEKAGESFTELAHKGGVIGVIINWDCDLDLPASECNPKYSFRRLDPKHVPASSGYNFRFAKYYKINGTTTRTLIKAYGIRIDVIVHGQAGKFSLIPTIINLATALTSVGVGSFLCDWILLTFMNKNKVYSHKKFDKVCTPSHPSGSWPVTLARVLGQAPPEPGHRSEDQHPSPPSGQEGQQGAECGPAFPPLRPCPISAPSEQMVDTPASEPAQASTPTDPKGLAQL
Chain of human P2X2/3 receptor (P56373 whole entry): as the sequence (P56373 whole entry) above

Turning to `CC(C)CNc1nc(N)ncc1Oc1cc(C2CC2)ncc1C(C)C` [Compound C194, 5-((2-cyclopropyl-5-isopropyl-pyridin-4-yl)oxy)-N^4-isobutyl-pyrimidine-2,4-diamine], the IC50 in experiment [1] worked out at 322 nM; in experiment [2], 446 nM.

As for `C=C(C)c1cnc(OC)cc1Cc1cnc(N)nc1N` [Compound C196, 5-((2-methoxy-5-(prop-1-en-2-yl)pyridin-4-yl)methyl)pyrimidine-2,4-diamine], the IC50 was determined as 208 nM in experiment [1] and 652 nM in experiment [2].

For the compound `CC(C)c1cnc(Br)cc1Oc1cnc(N)nc1NCCN` [Compound C199, N^4-(2-aminoethyl)-5-((2-bromo-5-isopropylpyridin-4-yl)oxy)pyrimidine-2,4-diamine], the IC50 in experiment [1] came to 186 nM; in experiment [2], 333 nM.

For `CC(C)c1cnc(Br)cc1Oc1cnc(N)nc1NCCOCCO` [Compound C201, 2-(2-((2-amino-5-((2-bromo-5-isopropylpyridin-4-yl)oxy)pyrimidin-4-yl)amino)ethoxy) ethanol], the IC50 was 316 nM in experiment [1] and 498 nM in experiment [2].

Take `CNCCNc1nc(N)ncc1Oc1cc(Br)ncc1C(C)C` [Compound C202, 5-((2-bromo-5-isopropylpyridin-4-yl)oxy)-N^4-(2-(methylamino)ethyl)pyrimidine-2,4-diamine]: the IC50 in experiment [1] was found to be 103 nM; in experiment [2], 166 nM.

For the compound `CC(C)c1cnc(Br)cc1Oc1cnc(N)nc1NCCN1CCOCC1` [Compound C203, 5-((2-bromo-5-isopropylpyridin-4-yl)oxy)-N^4-(2-morpholinoethyl) pyrimidine-2,4-diamine], the concentration for half-maximal inhibition (IC50) stood at 157 nM in experiment [1] and 275 nM in experiment [2].

Turning to `C=C(C)c1cnc(SC)cc1Oc1cnc(N)nc1N` [Compound C208, 5-((2-(methylthio)-5-(prop-1-en-2-yl)pyridin-4-yl)oxy)pyrimidine-2,4-diamine], the results for the 50% inhibitory concentration (IC50) in experiment [1] and in experiment [2] were 75.3 nM and 106 nM, respectively.

In the case of `CC[C@@H](CO)Nc1nc(N)ncc1Oc1cc(Br)ncc1C(C)C` [Compound C209, (S)-2-((2-amino-5-((2-bromo-5-isopropylpyridin-4-yl)oxy)pyrimidin-4-yl)amino)but-1-ol], the figures for the IC50 in experiment [1] and in experiment [2] were 144 nM and 209 nM, respectively.

In the case of `CC(C)c1cnc(Br)cc1Oc1cnc(N)nc1NCCN1CCCC1` [Compound C210, 5-((2-bromo-5-isopropylpyridin-4-yl)oxy)-N^4-(2-(pyrrolidin-1-yl)ethyl) pyrimidine-2,4-diamine], the IC50 in experiment [1] worked out at 269 nM; in experiment [2], 399 nM.

`C#Cc1cc(Oc2cnc(N)nc2NCCO)c(C(C)C)cn1` [Compound C211, 2-((2-amino-5-((2-ethynyl-5-isopropylpyridin-4-yl)oxy)pyrimidin-4-yl)amino)ethanol]: the IC50 came out at 64 nM in experiment [1] and 121 nM in experiment [2].

For the compound `C#Cc1cc(Oc2cnc(N)nc2NC(C)C)c(C(C)C)cn1` [Compound C212, 5-((2-ethynyl-5-isopropylpyridin-4-yl)oxy)-N^4-isopropylpyrimidine-2,4-diamine], the IC50 in experiment [1] was 81 nM; in experiment [2], 123 nM.

Turning to `C#Cc1cc(Oc2cnc(N)nc2NC)c(C(C)C)cn1` [Compound C213, 5-((2-ethynyl-5-isopropylpyridin-4-yl)oxy)-N^4-methylpyrimidine-2,4-diamine], the IC50 in experiment [1] came out at 112 nM; in experiment [2] it was 295 nM.

Turning to `C=C(C)c1cnc(NCC)cc1Oc1cnc(N)nc1N` [Compound C214, 5-((2-(ethylamino)-5-(prop-1-en-2-yl)pyridin-4-yl)oxy)pyrimidine-2,4-diamine], the IC50 was 44 nM in experiment [1] and 72 nM in experiment [2].

Turning to `C#Cc1cc(Oc2cnc(N)nc2N)c(C(=C)C)cn1` [Compound C215, 5-((2-ethynyl-5-(prop-1-en-2-yl)pyridin-4-yl)oxy) pyrimidine-2,4-diamine], the IC50 was 88.2 nM in experiment [1] and 194 nM in experiment [2].

For the compound `C#Cc1cc(Oc2cnc(N)nc2NCC(O)CO)c(C(C)C)cn1` (centres unmarked) [Compound C216, 3-((2-amino-5-((2-ethynyl-5-isopropylpyridin-4-yl)oxy)pyrimidin-4-yl)amino)propane-1,2-diol], the IC50 stood at 62 nM in experiment [1] and 65 nM in experiment [2].

On to `CC(C)c1cnc(Cl)cc1Oc1cnc(NC(CO)CO)nc1N` [Compound C218, 2-((4-amino-5-((2-chloro-5-isopropyl-pyridin-4-yl)oxy)pyrimidin-2-yl)amino) propane-1,3-diol], for which the IC50 in experiment [1] worked out at 186 nM; in experiment [2], 383 nM.

Regarding `CC(C)c1cnc(Br)cc1Oc1cnc(N)nc1NNC(=O)OC(C)(C)C` [Compound C222, tert-butyl 2-(2-amino-5-((2-bromo-5-isopropylpyridin-4-yl)oxy)pyrimidin-4-yl)hydrazine-1-carboxylate], the results for the IC50 in experiment [1] and in experiment [2] were 48 nM and 40 nM, respectively.

As to `CC(C)c1cnc(Br)cc1Oc1cnc(NCCO)nc1NCCO` [Compound C226, 2,2′-((5-((2-bromo-5-isopropylpyridin-4-yl)oxy)pyrimidin-2,4-diyl)bis(azanediyl))diethanol], the IC50 in experiment [1] came out at 115 nM; in experiment [2] it was 155 nM.

Take `C#Cc1cc(Oc2cnc(NC(CO)CO)nc2N)c(C(C)C)cn1` [Compound C228, 2-((4-amino-5-((2-ethynyl-5-isopropyl-pyrdin-4-yl)oxy)pyrimidin-2-yl)amino) propane-1,3-diol]: the concentration for half-maximal inhibition (IC50) in experiment [1] was determined as 119 nM; in experiment [2], 125 nM.

As for `C#Cc1cc(Oc2cnc(NCC(O)CO)nc2N)c(C(C)C)cn1` (centres unmarked) [Compound C229, 3-((4-amino-5-((2-ethynyl-5-isopropyl-pyridin-4-yl)oxy)pyrimidin-2-yl)amino) propane-l,2-diol], the values for the half-inhibitory concentration (IC50) in experiment [1] and in experiment [2] were 65 nM and 113 nM, respectively.

As to `C#Cc1cc(Oc2cnc(NCCO)nc2N)c(C(C)C)cn1` [Compound C230, 2-((4-amino-5-((2-ethynyl-5-isopropyl-pyridin-4-yl)oxy)pyrimidin-2-yl)amino) ethanol], the results for the IC50 in experiment [1] and in experiment [2] were 60 nM and 106 nM, respectively.

With `C#Cc1cc(Oc2cnc(NC(C)C)nc2N)c(C(C)C)cn1` [Compound C233, 5-((2-ethynyl-5-isopropyl-pyrdin-4-yl)oxy)-N^2-isopropyl-pyrmidine-2,4-diamine], the results for the IC50 in experiment [1] and in experiment [2] were 72 nM and 125 nM, respectively.

With `CC(C)c1cnc(Br)cc1Oc1cnc(NCC(O)CO)nc1N` (centres unmarked) [Compound C235, 3-((4-amino-5-((2-bromo-5-isopropyl-pyridin-4-yl)oxy)pyrimidin-2-yl)amino) propane-1,2-diol], the results for the IC50 in experiment [1] and in experiment [2] were 90 nM and 145 nM, respectively.

As for `CC(C)c1cnc(Br)cc1Oc1cnc(NCCO)nc1N` [Compound C236, 2-((4-amino-5-((2-bromo-5-isopropyl-pyridin-4-yl)oxy)pyrimidin-2-yl)amino)ethanol], the IC50 stood at 88 nM in experiment [1] and 134 nM in experiment [2].

`CNc1ncc(Oc2cc(Br)ncc2C(C)C)c(N)n1` [Compound C237, 5-((2-bromo-5-isopropylpyridin-4-yl)oxy)-N^2-methylpyrimidine-2,4-diamine]: the half-inhibitory concentration (IC50) in experiment [1] came to 363 nM; in experiment [2] it was 781 nM.

As to `CC(C)c1cnc(Br)cc1Oc1cnc(NC2CC2)nc1N` [Compound C238, 5-((2-bromo-5-isopropylpyridin-4-yl)oxy)-N^2-cyclopropyl-pyrimidine-2,4-diamine], the half-inhibitory concentration (IC50) in experiment [1] amounted to 104 nM; in experiment [2], 206 nM.

As for `CC(C)Nc1ncc(Oc2cc(Br)ncc2C(C)C)c(N)n1` [Compound C239, 5-((2-bromo-5-isopropylpyridin-4-yl)oxy)-N^2-isopropyl-pyrimidine-2,4-diamine], the IC50 was determined as 107 nM in experiment [1] and 131 nM in experiment [2].

As for `CC(C)c1ncc(Cl)cc1Oc1cnc(N)nc1N` [Reference Compound C10, 5-((5-chloro-2-isopropylpyridin-3-yl)oxy)pyrimidine-2,4-diamine, reference compound], the IC50 in experiment [1] was found to be 2510 nM; in experiment [2], 1820 nM.
